We go through 10 compounds from ChEMBL document CHEMBL1201862, “PubChem BioAssay data set” (2004).

Common to all, as to experiment: NCI tumour cell line growth inhibition, 48 h
Test [1] has as its system SK-MEL-28.
In test [2] the test system is UO-31.
In test [3] the test system is MCF7.
Test [4] concerns HT-29.
Test [5] relates to BT-549.
Test [6] concerns DU-145.
Test [7] concerns ACHN.
For test [8], the system named is RXF 393.
For test [9], the system named is SK-MEL-2.
Test [10] relates to LOX IMVI.
Test [11] concerns CAKI-1.
Test [12] concerns HCC 2998.
Test [13] deals with HOP-92.
For test [14], the system named is RPMI-8226.
Test [15] deals with HOP-62.
The subject of test [16] is NCI-H460.
Test [17] relates to SF-539.
Test [18] concerns IGROV-1.
The subject of test [19] is HL-60.
Test [20] relates to MOLT-4.

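A five-concentration, 48-hour dose response in 96-well plates underlies each endpoint, interpolated linearly between surrounding concentrations. GI50 = concentration required for 50% inhibition of growth.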 Calls of active or inactive are those of the source. No stated cut-off is given here; in the data, active = GI50 up to about 1.1 µM and inactive = higher.

Take `O=C1c2cc(Br)ccc2-c2ccc3c4ccc5c6c(ccc(c7ccc1c2c73)c64)C(=O)c1cc(Br)ccc1-5`: the GI50 in test [1], in test [2], in test [3], in test [4], in test [5] and in test [6] was > 100 µM (inactive) throughout. The GI50 in test [7], in test [8], in [9], in test [10], in test [11] and in test [12] was > 100 µM (inactive) each time. For the same compound, the GI50 in [13], in test [14], in test [15], in [16], in test [17] and in test [18] was > 100 µM (inactive) throughout. Also, the GI50 in test [19] is 25.8 µM (inactive).

For the compound `CC(NNC(=O)c1ccncc1)c1ccc(F)cc1` (configuration not stated), the GI50 in test [1], in [2], in [3], in [4], in test [5] and in test [6] was > 100 µM (inactive) each time. Also, the GI50 in [7], in test [8], in [9], in test [10], in test [11] and in test [12] was > 100 µM (inactive) each time. For the same compound, the GI50 in test [13] is > 100 µM (inactive); in test [15], > 100 µM (inactive); in [16], > 100 µM (inactive); in test [17], > 100 µM (inactive); in test [18], > 100 µM (inactive); in [20] it was 6.65 µM (inactive). The GI50 in test [19] is 80 µM (inactive).

Turning to `CC(=O)O/C=C1/C[C@H]2[C@@H]3CCC4CC(C(C)=O)CC[C@]4(C)[C@H]3CC[C@]2(C)C1=O` (some centres not stated), the GI50 in [1] is > 100 µM (inactive); in test [2], > 100 µM (inactive); in [3] it was 38 µM (inactive); in test [4], 51.4 µM (inactive); in test [5], > 100 µM (inactive); in [6], > 100 µM (inactive). For the same compound, the GI50 in test [7] is > 100 µM (inactive); in test [8], > 100 µM (inactive); in [9], > 100 µM (inactive); in test [10], 33.3 µM (inactive); in test [11], > 100 µM (inactive); in [12] it was > 100 µM (inactive). Further, the GI50 in test [13] is 41 µM (inactive); in test [15], > 100 µM (inactive); in test [16], > 100 µM (inactive); in test [18], 88.9 µM (inactive); in test [20], 39.1 µM (inactive); in test [19], 11.9 µM (inactive).

In the case of `Oc1cc(Cl)cc2cc(Cl)cnc12`, the GI50 in [1] was 5.12 µM (inactive); in [2], 3.21 µM (inactive); in test [3], 3.4 µM (inactive); in test [4] it was 22.8 µM (inactive); in test [5] it was 4.73 µM (inactive); in test [6], 6.47 µM (inactive). The GI50 in test [7] was 2.44 µM (inactive); in test [8], 5.07 µM (inactive); in test [10] it was 0.597 µM (active); in test [11] it was 12.9 µM (inactive); in test [12], 25.1 µM (inactive); in test [13], 21.5 µM (inactive). Further, the GI50 in test [14] is 2.59 µM (inactive); in test [15], 7.41 µM (inactive); in [16] it was 1.79 µM (inactive); in test [17] it was 3.24 µM (inactive); in [18] it was 0.596 µM (active); in [20] it was 2.89 µM (inactive). For the same compound, in [19], the GI50 was 0.288 µM (active).

Take `O=c1[nH]nc(Cc2ccccc2)n1/N=C/c1ccncc1`: the GI50 is > 100 µM (inactive) in test [1]; > 100 µM (inactive) in test [2]; > 100 µM (inactive) in test [3]; > 100 µM (inactive) in [4]; 68.9 µM (inactive) in test [5]; > 100 µM (inactive) in test [6]. The GI50 in test [7] was > 100 µM (inactive); in [8], > 100 µM (inactive); in test [10], > 100 µM (inactive); in [11] it was 42.2 µM (inactive); in test [12], > 100 µM (inactive); in [13], > 100 µM (inactive). Moreover, the GI50 in test [14] is > 100 µM (inactive); in test [15], 48.2 µM (inactive); in test [16], > 100 µM (inactive); in test [17], > 100 µM (inactive); in [18] it was > 100 µM (inactive); in test [20] it was > 100 µM (inactive). In test [19], the GI50 was > 100 µM (inactive).

For `CC1(C)[C@H]2Cc3cc(-c4cc5c(cn4)[C@@H]4C[C@H]([C@@H]5[C@@H]5c6cc(-c7cc8c(cn7)[C@@H]7C[C@H](C8)C7(C)C)ncc6[C@@H]6C[C@H]5C6(C)C)C4(C)C)ncc3[C@@H]1C2`, the GI50 in test [1], in [2], in test [3], in test [4], in test [5] and in test [6] was > 100 µM (inactive) in each case. Besides, the GI50 in test [7] was > 100 µM (inactive); in test [8] it was > 100 µM (inactive); in test [9] it was > 100 µM (inactive); in test [10], > 100 µM (inactive); in test [11] it was > 100 µM (inactive); in [12], 76.7 µM (inactive). Besides, the GI50 in test [13], in test [14], in test [15], in test [16], in test [18] and in [20] was > 100 µM (inactive) throughout. Also, the GI50 in test [19] is > 100 µM (inactive).

`Cc1ccc(S(=O)(=O)ON2C(=O)c3c(N)c(C#N)c(-c4ccccc4)c(-c4ccccc4)c3C2=O)cc1`: the GI50 in test [1] was 15.2 µM (inactive); in test [3], 16 µM (inactive); in test [4], 19.1 µM (inactive); in test [5] it was 13.1 µM (inactive); in test [6], 25.9 µM (inactive); in [7], 16.4 µM (inactive). Also, the GI50 is 10.4 µM (inactive) in [8]; 17.1 µM (inactive) in test [9]; 15.8 µM (inactive) in [10]; 16 µM (inactive) in test [11]; 31.2 µM (inactive) in test [12]; 21.6 µM (inactive) in test [13]. Moreover, the GI50 in test [14] was 11.1 µM (inactive); in test [16], 35.6 µM (inactive); in test [17], 21.6 µM (inactive); in test [18], 15.8 µM (inactive); in test [20] it was 10.2 µM (inactive); in test [19] it was 2.7 µM (inactive).

Take `COc1cc2cc(C(=O)N3CC(CCl)c4ccc([N+](=O)[O-])cc43)[nH]c2c(OC)c1OC` (configuration not stated): the GI50 in [1] was > 100 µM (inactive); in test [2] it was > 100 µM (inactive); in test [3], > 100 µM (inactive); in [4], 17.4 µM (inactive); in test [5], > 100 µM (inactive); in test [6] it was > 100 µM (inactive). The GI50 in test [7], in [8], in test [9], in test [10], in test [11] and in test [12] was > 100 µM (inactive) each time. For the same compound, the GI50 in [13], in test [14], in [15], in test [17], in test [18] and in test [20] was > 100 µM (inactive) in each case. For the same compound, the GI50 in [19] is > 100 µM (inactive).

For `NCC(=O)NC1(c2cc3ccccc3s2)CCCCC1`, the GI50 was 19 µM (inactive) in test [1]; 45.9 µM (inactive) in test [2]; 27.2 µM (inactive) in test [3]; 18.6 µM (inactive) in [4]; 54.1 µM (inactive) in test [5]; > 100 µM (inactive) in test [6]. Besides, the GI50 in test [7] is 23.3 µM (inactive); in test [8], 42.3 µM (inactive); in test [10] it was 51.1 µM (inactive); in test [11], > 100 µM (inactive); in test [12] it was 15.6 µM (inactive); in test [13], 22.2 µM (inactive). The GI50 in test [14] was 21.8 µM (inactive); in [15], > 100 µM (inactive); in test [16] it was 33.5 µM (inactive); in [17], 50.9 µM (inactive); in test [18], 61.1 µM (inactive); in test [19], 18.5 µM (inactive).

Take `CN(C)c1ccc(/C=C2\N=C(c3ccccc3)N(/N=C3\C(=O)Nc4ccccc43)C2=O)cc1`: the GI50 in [1] was > 100 µM (inactive); in test [2] it was 36 µM (inactive); in test [3], 35.8 µM (inactive); in test [4], 53.8 µM (inactive); in test [5], > 100 µM (inactive); in test [6], 61.9 µM (inactive). The GI50 in test [7] was 65.9 µM (inactive); in test [8], 45.1 µM (inactive); in test [9] it was 37.7 µM (inactive); in test [10], 28.8 µM (inactive); in [11] it was 35.9 µM (inactive); in test [12], 52.4 µM (inactive). Besides, the GI50 was 16.9 µM (inactive) in test [13]; > 100 µM (inactive) in test [15]; 50.5 µM (inactive) in test [16]; > 100 µM (inactive) in test [17]; 25.9 µM (inactive) in [18]; 32 µM (inactive) in [20]. For the same compound, the GI50 in test [19] is 35.2 µM (inactive).
